{
  "source": "patent US12527838B2",
  "about": "“Combination therapies comprising an agent that blocks the interaction between CD47 and SIRPα for treating gastric or gastroesphageal junction cancel” (ALX Oncology Inc., priority 2019, dated 2026)",
  "key": {"[1]": {"details": "cited from earlier work"}, "BCL-XL": {"target": "BCL-XL (Homo sapiens, UniProt Q07817)", "sequence (Q07817 whole entry, species assumed)": "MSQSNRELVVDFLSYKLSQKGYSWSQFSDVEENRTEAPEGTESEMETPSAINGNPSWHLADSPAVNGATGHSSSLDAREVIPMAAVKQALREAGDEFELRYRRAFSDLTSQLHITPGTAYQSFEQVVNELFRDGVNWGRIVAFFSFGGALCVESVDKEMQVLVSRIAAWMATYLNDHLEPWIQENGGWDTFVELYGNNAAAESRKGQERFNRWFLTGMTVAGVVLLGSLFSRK", "details": "selectivity profile; cited from earlier work"}, "MCL-1": {"target": "MCL-1 (Homo sapiens, UniProt Q07820)", "sequence (Q07820 whole entry, species assumed)": "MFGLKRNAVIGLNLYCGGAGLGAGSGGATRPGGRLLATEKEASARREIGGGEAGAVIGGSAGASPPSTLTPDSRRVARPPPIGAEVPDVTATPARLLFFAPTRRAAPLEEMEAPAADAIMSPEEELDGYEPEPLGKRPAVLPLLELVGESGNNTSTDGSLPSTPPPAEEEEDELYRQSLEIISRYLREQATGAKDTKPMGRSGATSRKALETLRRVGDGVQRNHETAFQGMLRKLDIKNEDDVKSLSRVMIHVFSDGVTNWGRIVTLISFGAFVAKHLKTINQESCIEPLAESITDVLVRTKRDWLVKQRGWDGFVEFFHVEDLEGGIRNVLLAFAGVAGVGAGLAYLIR", "details": "selectivity profile; cited from earlier work"}, "[2]": {"test_system": "BCL-XL-dependent cells, such as platelets", "details": "cited from earlier work"}, "BFL-1 (BCL2A1/A1)": {"target": "T1, BFL-1 (BCL2A1/A1) (Homo sapiens, UniProt Q16548)", "T1 sequence (Q16548 1-175)": "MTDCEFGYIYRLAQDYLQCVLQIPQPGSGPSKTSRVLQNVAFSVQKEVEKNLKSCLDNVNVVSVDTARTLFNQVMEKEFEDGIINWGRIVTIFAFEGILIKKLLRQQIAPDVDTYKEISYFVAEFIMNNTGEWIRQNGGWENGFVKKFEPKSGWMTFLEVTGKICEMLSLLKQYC", "details": "selectivity profile; cited from earlier work"}, "CT26 tumor cells": {"test_system": "CT26 tumor cells", "experiment": "CT26 syngeneic mouse colon carcinoma model", "type": "in vivo, BALB/c female mice", "protocol": "The CT26 cells (see Wang et al. (1995) J. Immunol. 154:4685-4692) were injected into the right flank of BALB/c female mice at a concentration of 5×10^5 cells per mouse in RPMI 1640. Tumors were monitored until the average size of all tumors reached 65-70 mm^3. […] The two 30 mpk doses were given 10 days apart. […] Mice receiving both cisplatin and Drug were administered with cisplatin (IP) according to one of the regimens described above, and with Drug A as described above. In mice receiving combination treatment, Drug A was administered one day after cisplatin. Tumors were measured in two dimensions with calipers, and tumor volume was calculated as: length×width×width×0.5, where length was the larger of the two measurements."}, "RS4;11 leukemia cells": {"test_system": "RS4;11 leukemia cells", "experiment": "RS4;11 xenograft model (acute leukemia)", "type": "in vivo, NOD-SCID female mice", "protocol": "The RS4;11 cells (described in Stong et al. (1985) Blood. 65(1): 21-31) was injected into the right flank of NOD-SCID female mice at a concentration of 5×10^6 cells per mouse using a 1:1 matrigel (Corning) and RPMI 1640 ratio. Tumors were monitored until the average size of all tumors reached 190 mm^3. […] The formulation for Venetoclax was a ratio of DMSO:ethanol:Cremophor EL:dextrose 5% in water (D5W) was […], by volume. Venetoclax-treated mice were dosed with 250 μg of Venetoclax by oral gavage 2 times total, 3 days apart. Drug A-treated mice were dosed IP at 10 mg/kg, 4 times total, 3-4 days apart. […] Tumors were measured in two dimensions with calipers, and tumor volume was calculated as: length×width×width×0.5, where length was the larger of the two measurements."}, "HL60 cells": {"test_system": "HL60 cells", "experiment": "In vitro phagocytosis of HL60 cells by human monocyte-derived macrophages", "type": "cell-based", "details": "20 nM Drug A, 125 nM venetoclax; FIG. 5A", "procedure": "CD14^+ monocytes were purified by negative selection using the Classical Monocytes Isolation Kit, human (Miltenyi Biotec) and LS columns (Miltenyi Biotec) according to the manufacturer's protocol. CD14^+ monocytes were seeded into 150 mm tissue culture dishes (Corning) at 6 million cells per dish in 25 mL medium comprised of RPMI complete media, supplemented with 50 ng/mL M-CSF (Miltenyi Biotec), 10% human FBS serum (Thermo Fisher Scientific), 1% penicillin/streptomycin, and 1% GlutaMAX. Cells were cultured for seven to eleven days.\nHL60 and OCI-AML3 cells were washed once in PBS and labeled with the Celltrace CFSE Cell Proliferation kit (Thermo Fisher Scientific) in suspension with 300 nM CFSE (carboxyfluorescein succinimidyl ester) according to the manufacturer's instructions and resuspended in RPMI complete media. […] Prior to incubation with macrophages, cells were resuspended in RPMI. Macrophages were detached from culture plates by washing once with PBS and incubation in TrypLE Select for 20 minutes at 37° C. Cells were removed with a cell scraper (Corning), washed in PBS, and resuspended in RPMI. […]\nBriefly HL60 cells and OCI-AML3 cells (i.e., “target cells”) were labeled with CFSE (carboxyfluorescein succinimidyl ester) and treated with venetoclax for 48 hours. […] Macrophage cells were pelleted, stained, and analyzed via flow cytometry. […]"}},
  "data": [
    {"smiles": "[NH2][Pt]1([NH2])[O]C(=O)C2(CCC2)C(=O)[O]1", "note": "[Carboplatin, platinum, diammine [1,1cyclobutane-dicarboxylato(2-)-0,0]-, (SP-4-2)]", "values": [
      {"measurement": "aqueous solubility", "setting": "[1]", "value": "water-soluble"}
    ]},
    {"smiles": "O=C(c1cc(-c2cc3c(cc2C(=O)N2Cc4ccccc4C[C@H]2CN2CCOCC2)OCO3)n2c1CCCC2)N(c1ccccc1)c1ccc(O)cc1", "note": "[Drug S55746, (S)—N-(4-hydroxyphenyl)-3-(6-(3-(morpholinomethyl)-1,2,3,4-tetrahydroisoquinoline-2-carbonyl)benzo[d][1,3]dioxol-5-yl)-N-phenyl-5,6,7,8-tetrahydroindolizine-1-carboxamide]", "values": [
      {"measurement": "affinity for BCL-XL", "setting": "BCL-XL", "value": "poor affinity"},
      {"measurement": "binding to MCL-1", "setting": "MCL-1", "value": "no significant binding"},
      {"measurement": "cytotoxic activity", "setting": "[2]", "value": "no cytotoxic activity"},
      {"measurement": "binding to BFL-1 (BCL2A1/A1)", "setting": "BFL-1 (BCL2A1/A1)", "value": "no significant binding"}
    ]},
    {"smiles": "N.N.[Cl][Pt][Cl]", "note": "[cisplatin, dichloroplatinum diammoniate]", "values": [
      {"measurement": "mice with a tumor volume<500 mm^3", "setting": "CT26 tumor cells; cisplatin two 5 mpk doses regimen", "value": 10, "unit": "%"},
      {"measurement": "tumor growth", "setting": "CT26 tumor cells; day 20, cisplatin two 5 mpk doses 10 days apart, Drug A two 30 mpk doses, FIG. 2A", "value": "inhibited somewhat"}
    ]},
    {"smiles": "CC1(C)CCC(CN2CCN(c3ccc(C(=O)NS(=O)(=O)c4ccc(NCC5CCOCC5)c([N+](=O)[O-])c4)c(Oc4cnc5[nH]ccc5c4)c3)CC2)=C(c2ccc(Cl)cc2)C1", "note": "[venetoclax, 4-(4-{[2-(4-chlorophenyl)-4,4dimethylcyclohex-1-en-1-yl]methyl}piperazin-1-yl)-N-({3-nitro-4-[(tetrahydro-2H-pyran-4ylmethyl)amino]phenyl}sulfonyl)-2-(1H-pyrrolo[2,3-b]pyridin-5-yloxy)benzamide]", "values": [
      {"measurement": "average tumor volume", "setting": "RS4;11 leukemia cells; Day 65, re-treated mice (n=5/group)", "value": "about 1685 mm^3"},
      {"measurement": "tumor-free (TF) mice", "setting": "RS4;11 leukemia cells; day 41", "value": "1 out of 10"},
      {"measurement": "tumor growth (tumor volume)", "setting": "RS4;11 leukemia cells; venetoclax 250 μg oral gavage 2 times, Drug A 10 mg/kg IP 4 times, FIG. 1A", "value": "inhibited tumor growth"},
      {"measurement": "aqueous solubility", "setting": "[1]", "value": "very low aqueous solubility"},
      {"measurement": "macrophage-mediated phagocytosis of HL60 cells", "setting": "HL60 cells", "value": "stimulated macrophage-mediated phagocytosis of HL60 cells"}
    ]}
  ]
}
